Where only a bound is given, the exact number is not on record here.

Results on one compound are retold here after patent publication US20260308158A1, “TARGETING RNAS ASSOCIATED WITH TAUOPATHIES WITH SMALL MOLECULES” (University of Florida Research Foundation, Incorporated, priority 2023, published 2026).

Data set [1] deals with WT I17T MAPT exon 10 mini-gene luciferase reporter. Briefly: Luciferase reporter assay, WT I17T mutant mini-gene in HeLa cells. The data set is classed as cell-based. Particulars: Homo sapiens, 48 h, 5 μM (highest dose), read-out: reduction of luciferase activity. As to the method: Luciferase-reporter Assay to Study Exon 10 Alternative Splicing. The exon 10 mini-genes, both WT and DDPAC and mutant thereof, fused to firefly luciferase, have been previously described.^18 HeLa cells were seeded in 60 mm diameter dishes and incubated for 12-16 h to 70% confluency. They were then transfected with WT, WT+I17T, DDPAC, or DDPAC+I17T luciferase reporter minigenes using JetPrime (Polyplus Transfection) per the manufacturer's recommended protocol and incubated for 4 h. After transfection, the cells were collected by trypsinization and re-seeded in 96-well plates at 0.2×10^5 cells per well, followed by treatment of compounds after 4 h. Compound stocks prepared in DMSO were diluted in growth medium and added to cells with final DMSO concentration at 0.1% (v/v). After a 48 h treatment period, the cells were washed with 1× DPBS. Each well was added with a mixture of 10 μL WST-1 reagent and 90 μL of growth medium. After incubation at 37° C. for 45 min, absorbance was measured at 450 and 690 nm. A690 as background was subtracted from A450 to obtain A450′. […] The plate was incubated at room temperature for 20 min and the luminescence was measured with a […] plate reader (1000 ms integration time). The resulted luminescence was normalized to A450′.

The test system of data set [2] is WT MAPT mini-gene (exon 10 splicing). As to the kind of experiment: 4R/3R MAPT mRNA by RT-qPCR, HeLa cells transfected with WT mini-gene. The data set is classed as cell-based. As to the method:
RNA Isolation and Real-Time Quantitative PCR (RT-qPCR). HeLa cells were treated as described in the Luciferase Reporter assay to Study Exon 10 Alternative Splicing. LAN5 cells were seeded in 12-well plates at 0.2×10^6 cells per well, treated with compound or ASO, and incubated for 48 h. Compound stocks prepared in DMSO and ASO stocks prepared in water were diluted in growth medium and added to cells. Total RNA was extracted from cells and analyzed via RT-qPCR to determine levels of 3R and 4R tau mRNA. In brief, the cells were washed with 1×DPBS and then lysed in the well using 300 μL of Lysis Buffer provided in a Quick-RNA MiniPrep kit (Zymo Research), which was used to extract total RNA per the manufacturer's protocol including the on-column DNase I digestion. The concentration of total RNA was measured by NanoDrop 2000 (Thermo Fisher Scientific). Only samples with OD260/OD280>1.8 were carried forward for analysis. Reverse transcription (RT) was carried out on 200 ng of total RNA using a qScript cDNA synthesis kit (QuantaBio) in a total volume of 10 μL according to the manufacturer's protocol. […] 4R/3R ratio were analyzed using ΔΔCt method using Equation 2: […]

For data set [3], the system named is DDPAC I17T MAPT mini-gene (exon 10 splicing). Briefly: 4R/3R MAPT mRNA by RT-qPCR, HeLa cells transfected with DDPAC I17T mini-gene. The data set is classed as cell-based. As to the method:
RNA Isolation and Real-Time Quantitative PCR (RT-qPCR). HeLa cells were treated as described in the Luciferase Reporter assay to Study Exon 10 Alternative Splicing. LAN5 cells were seeded in 12-well plates at 0.2×10^6 cells per well, treated with compound or ASO, and incubated for 48 h. Compound stocks prepared in DMSO and ASO stocks prepared in water were diluted in growth medium and added to cells. Total RNA was extracted from cells and analyzed via RT-qPCR to determine levels of 3R and 4R tau mRNA. In brief, the cells were washed with 1×DPBS and then lysed in the well using 300 μL of Lysis Buffer provided in a Quick-RNA MiniPrep kit (Zymo Research), which was used to extract total RNA per the manufacturer's protocol including the on-column DNase I digestion. The concentration of total RNA was measured by NanoDrop 2000 (Thermo Fisher Scientific). Only samples with OD260/OD280>1.8 were carried forward for analysis. Reverse transcription (RT) was carried out on 200 ng of total RNA using a qScript cDNA synthesis kit (QuantaBio) in a total volume of 10 μL according to the manufacturer's protocol. An Applied Biosystems QS5 384-well PCR system was used to complete qPCR reactions with Power SYBR Green Master Mix (Life Technologies), 600 nM each primer (Table S3), 20 ng of cDNA (1 μL of the RT reaction), in a total volume of 33 μL. Technical triplicates (10 μL each) were aliquoted into 384-well qPCR plates (Applied biosystems, 4483285). Subsequent qPCR analysis was performed using an Applied Biosystems QS5 384-well PCR system (software v.1.3.0). 4R/3R ratio were analyzed using ΔΔCt method using Equation 2: […]
where ΔCt 4R or ΔCt 3R is the difference between the Ct values for the 4R or 3R MAPT mRNA and a housekeeping gene (18S rRNA) in total RNA from cells.

For another data set, the target named is DDPAC I17T mutant RNA. Briefly: Fluorescent binding affinity, DDPAC I17T mutant RNA. As to the method:
Fluorescent Binding Affinity Measurements. Binding assays were completed as previously described.^30 Briefly, the RNA of interest was folded in 1× Assay Buffer-1 (AB1: 8 mM Na2HPO4, pH 7.0, 185 mM NaCl, and 1 mM EDTA) by heating at 95° C. for 30 s followed by slowly cooling to room temperature. Bovine serum albumin (BSA) was then added to a final concentration of 40 μg/mL to afford 1× Assay Buffer-2 (AB2: 8 mM Na2HPO4, pH 7.0, 185 mM NaCl, 1 mM EDTA, and 40 μg/mL BSA). The RNA solution was serial diluted with 1×AB2. Then, compound of interest was added to the RNA solutions to a final concentration of 0.5 μM. […] Fluorescence intensity was measured using a Tecan Plate Reader (Gain: 100, Integration time: 40 μs). […] The change in fluorescence of the small molecule was calculated by its comparison to samples lacking RNA. Binding affinity was calculated using Equation 1, as previously described:^30
where I and I0 are the measured fluorescence intensity of the compound with or without RNA, respectively, Δε is the difference between the fluorescence intensity with the infinite concentration of RNA and the fluorescence intensity without RNA, [SM]0 and [RNA]0 are the concentrations of the small molecule (SM) and RNA, respectively, and Kd is the dissociation constant.

Data set [4] can be described thus: Body weight / tolerability, WT mice. The data set is classed as in vivo, WT mouse (C57BL/6J). Particulars: 100 mg/kg p.o. q.o.d., 20 days. From the text:
hTau Mice Studies. htau mice and WT mice (C57BL/6J) were purchased from Jackson Laboratories. htau mice were maintained in-house through breeding between htau+/− mice. Genotype was confirmed by PCR amplification as previously described.^18 Only homozygous mice were used in in vivo studies. Mice were randomly assigned to a treatment group, which were age- and gender-matched (n=X). In these studies, mice were >9 months of age since cognitive and physiological impairments in htau mice was age-dependent and were not presented in young mice (<4 months) with early-stage tau pathology.^42 Mice were orally administered vehicle (5/5/90 DMSO/Tween-80/H2O) or 100 mg/kg of 2 in the same formulation every other day (q.o.d.). During the treatment period, nesting activity was assessed, as describe in Nesting Activity below. After 20 days, the mice were euthanized (in accordance with guidelines provided by the American Veterinarian Medical Association), and the brain was harvested for analysis. One hemisphere of the brain was frozen at −80° C. for RT-qPCR analyses while the other was used for histological studies.

Data set [5] is classed as physicochemical. Particulars: not tested for this reason.

Turning to `COc1cc(N)ncc1CCCN(C)CCCn1cnc2c3ccccc3n(C)c2c1=O` [Compound 2, 3-(3-((3-(6-amino-4-methoxypyridin-3-yl)propyl)(methyl)amino)propyl)-5-methyl-3,5-dihydro-4H-pyrimido[5,4-b]indol-4-one], the inhibition at 5 µM in data set [1] was roughly 15%. The “PSI10 (PSI of MAPT exon 10) vs vehicle” value was “downregulated” in data set [2] (HeLa, WT mini-gene) and “not WT I17T or DDPAC I17T mutant” in data set [3]. In data set [2] (Homo sapiens, 2 at 1.5 μM, 48 h, HeLa WT mini-gene, read-out: reduction of 4R/3R ratio (mRNA)), the inhibition at 1.5 µM amounted to 41 ± 3%. Besides, the “change in 4R/3R ratio (not statistically significant)” value in data set [3] (1 at 10 μM or 2 at 1.5 μM) is listed as less than 16%. Also, at DDPAC I17T mutant RNA, the “Kd (estimated; no saturable binding)” value was greater than 50 µM. Besides, in data set [4], the change in weight result is on record as “no change in the weight”. In data set [5], the “solubility at 200 μM” value was “insolubility”.
